Test results: the supplement of paper PMC10307832

What was measured:
Assay in all cases: relative viability (nuclei count vs DMSO), 5 days (fraction); higher = more cells survive
[1] = compound: Cc1ccc2nc(NCCN)c3ncc(C)n3c2c1 + CC(=O)c1c(C)c2cnc(Nc3ccc(N4CCNCC4)cn3)nc2n(C2CCCC2)c1=O [Palbociclib] (partner 0.5 µM)
Summary of the method: (§1)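 Dosing by pin tool came one day after lung cancer cell lines were seeded in 1536-well plates, using either one drug or a fixed anchor-drug dose plus five library-drug doses (not always all listed) in √10 steps. After 5 days, nuclei were counted on 4× images. Relative viability is treated-well nuclei count divided by vehicle-well nuclei count, and values are medians of duplicate plates.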

[2] = compound: Cc1ccc2nc(NCCN)c3ncc(C)n3c2c1 + Cc1nc(NC(=O)N2CCC[C@H]2C(N)=O)sc1-c1ccnc(C(C)(C)C(F)(F)F)c1 [Alpelisib] (partner 2 µM)
Summary of the method: as §1

Salubrinal + Pictilisib = compound: O=C(/C=C/c1ccccc1)NC(NC(=S)Nc1cccc2cccnc12)C(Cl)(Cl)Cl [Salubrinal] + CS(=O)(=O)N1CCN(Cc2cc3nc(-c4cccc5[nH]ncc45)nc(N4CCOCC4)c3s2)CC1 [Pictilisib] (partner 1 µM)
Summary of the method: as §1

Salubrinal + Pemetrexed = compound: O=C(/C=C/c1ccccc1)NC(NC(=S)Nc1cccc2cccnc12)C(Cl)(Cl)Cl [Salubrinal] + Nc1nc2[nH]cc(CCc3ccc(C(=O)N[C@@H](CCC(=O)O)C(=O)O)cc3)c2c(=O)[nH]1 [Pemetrexed] (partner 0.2 µM)
Summary of the method: as §1

| Cell Line | relative viability ([1]; first compound 0.04 µM) | relative viability ([1]; first compound 0.1265 µM) | relative viability ([1]; first compound 0.4 µM) | relative viability ([1]; first compound 1.265 µM) | relative viability ([1]; first compound 4 µM) | relative viability ([2]; first compound 0.04 µM) | relative viability ([2]; first compound 0.1265 µM) | relative viability ([2]; first compound 0.4 µM) | relative viability ([2]; first compound 1.265 µM) | relative viability ([2]; first compound 4 µM) | relative viability (Salubrinal + Pictilisib; first compound 0.08 µM) | relative viability (Salubrinal + Pictilisib; first compound 0.253 µM) | relative viability (Salubrinal + Pictilisib; first compound 0.8 µM) | relative viability (Salubrinal + Pictilisib; first compound 2.53 µM) | relative viability (Salubrinal + Pictilisib; first compound 8 µM) | relative viability (Salubrinal + Pemetrexed; first compound 0.08 µM) | relative viability (Salubrinal + Pemetrexed; first compound 0.253 µM) | relative viability (Salubrinal + Pemetrexed; first compound 0.8 µM) | relative viability (Salubrinal + Pemetrexed; first compound 2.53 µM) | relative viability (Salubrinal + Pemetrexed; first compound 8 µM) |
| --- | --- | --- | --- | --- | --- | --- | --- | --- | --- | --- | --- | --- | --- | --- | --- | --- | --- | --- | --- | --- |
| NCI-H1734 | 0.319 | 0.367 | 0.369 | 0.319 | 0.254 | 0.699 | 0.634 | 0.668 | 0.605 | 0.685 | 0.452 | 0.508 | 0.503 | 0.517 | 0.438 | 0.423 | 0.454 | 0.41 | 0.427 | 0.409 |
| NCI-H1755 | 0.454 | 0.482 | 0.486 | 0.455 | 0.385 | 0.978 | 0.928 | 0.898 | 0.962 | 0.908 | 0.564 | 0.417 | 0.535 | 0.431 | 0.401 | 0.379 | 0.513 | 0.401 | 0.638 | 0.395 |
| NCI-H1792 | 0.694 | 0.649 | 0.652 | 0.562 | 0.625 | 0.696 | 0.678 | 0.615 | 0.527 | 0.661 | 0.324 |  | 0.246 | 0.287 | 0.243 | 1.07 |  | 1.24 | 0.795 | 0.572 |
| NCI-H1793 | 0.303 | 0.328 | 0.283 | 0.312 | 0.318 | 0.707 | 0.677 | 0.637 | 0.654 | 0.693 | 0.309 | 0.319 | 0.306 | 0.316 | 0.285 | 1.13 | 0.81 | 1.24 | 0.805 | 0.76 |
| NCI-H1915 | 0.512 | 0.51 | 0.39 | 0.552 | 0.488 | 0.999 |  | 1.1 | 1.02 | 1.07 | 0.855 | 0.942 | 0.999 | 0.946 | 0.953 | 0.477 |  | 0.562 | 0.495 | 0.466 |
| NCI-H1944 | 0.333 | 0.322 | 0.349 | 0.31 | 0.297 | 0.821 | 0.832 | 0.869 | 0.823 | 0.909 | 0.349 | 0.328 | 0.362 | 0.348 | 0.307 | 0.607 | 0.669 | 0.797 | 0.752 | 0.789 |
| NCI-H1975 | 0.626 | 0.583 | 0.647 | 0.611 | 0.517 | 0.618 | 0.551 | 0.677 | 0.643 | 0.5 | 0.259 | 0.269 | 0.338 | 0.269 | 0.278 | 0.321 | 0.283 | 0.337 | 0.318 | 0.28 |
| NCI-H1993 | 0.627 | 0.559 | 0.532 | 0.501 | 0.596 | 0.69 | 0.666 | 0.649 | 0.625 | 0.693 | 0.817 | 0.827 | 0.877 | 0.773 | 0.861 | 0.666 | 0.596 | 0.524 |  | 0.573 |
